As usually defined, the EC50 is the concentration at which the effect is half-maximal.

In this experiment the target is GABA A receptor α1β2γ2S (Rattus norvegicus, UniProt P18508+P62813+P63138). The experiment is described as follows: two-microelectrode voltage clamp, Xenopus oocytes, potentiation of GABA current. It is filed as cell-based.
Sequence of GABA A receptor α1β2γ2S (P62813 28-455): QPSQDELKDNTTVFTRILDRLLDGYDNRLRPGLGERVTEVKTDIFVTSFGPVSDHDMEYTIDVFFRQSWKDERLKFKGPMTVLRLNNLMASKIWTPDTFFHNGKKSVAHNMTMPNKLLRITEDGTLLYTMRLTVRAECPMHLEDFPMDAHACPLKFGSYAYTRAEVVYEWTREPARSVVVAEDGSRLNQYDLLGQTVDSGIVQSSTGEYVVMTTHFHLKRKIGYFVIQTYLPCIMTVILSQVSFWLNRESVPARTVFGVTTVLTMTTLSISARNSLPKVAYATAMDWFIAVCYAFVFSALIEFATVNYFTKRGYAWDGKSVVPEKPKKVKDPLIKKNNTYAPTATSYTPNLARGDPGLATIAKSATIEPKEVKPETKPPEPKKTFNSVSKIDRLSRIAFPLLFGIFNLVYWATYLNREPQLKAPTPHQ
Sequence of GABA A receptor α1β2γ2S (P63138 26-474): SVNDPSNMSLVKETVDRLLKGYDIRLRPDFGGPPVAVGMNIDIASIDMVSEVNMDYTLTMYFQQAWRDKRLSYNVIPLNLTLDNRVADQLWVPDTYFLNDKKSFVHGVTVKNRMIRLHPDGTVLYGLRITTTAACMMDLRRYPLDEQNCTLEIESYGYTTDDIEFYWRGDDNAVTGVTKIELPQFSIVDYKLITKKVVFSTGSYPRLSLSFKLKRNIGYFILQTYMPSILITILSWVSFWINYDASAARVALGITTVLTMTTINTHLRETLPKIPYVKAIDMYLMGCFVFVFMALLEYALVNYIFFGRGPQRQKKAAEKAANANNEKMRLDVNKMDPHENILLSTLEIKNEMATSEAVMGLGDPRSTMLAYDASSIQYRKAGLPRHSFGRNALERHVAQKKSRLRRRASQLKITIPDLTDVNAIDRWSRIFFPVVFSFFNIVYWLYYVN
Sequence of GABA A receptor α1β2γ2S (P18508 39-466): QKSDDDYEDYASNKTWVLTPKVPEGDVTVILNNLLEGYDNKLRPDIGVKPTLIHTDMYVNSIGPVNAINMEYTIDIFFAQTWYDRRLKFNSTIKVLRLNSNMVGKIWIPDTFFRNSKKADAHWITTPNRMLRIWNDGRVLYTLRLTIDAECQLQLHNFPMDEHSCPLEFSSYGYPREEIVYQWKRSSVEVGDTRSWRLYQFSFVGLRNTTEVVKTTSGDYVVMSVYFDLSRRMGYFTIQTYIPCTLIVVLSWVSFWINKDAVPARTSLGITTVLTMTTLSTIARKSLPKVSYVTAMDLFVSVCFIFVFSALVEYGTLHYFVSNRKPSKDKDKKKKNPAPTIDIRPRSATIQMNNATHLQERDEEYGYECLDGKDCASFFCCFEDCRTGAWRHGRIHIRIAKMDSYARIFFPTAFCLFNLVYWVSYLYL
On to `COc1cc(C[C@@H](C)[C@@H](C)Cc2ccc(O)c(OC)c2)ccc1O` [compound 5, dihydroguaiaretic acid], for which the EC50 worked out at 79.2 ± 19.4 µM.

Take `C=CC(=C)CC[C@@H](OC(=O)/C=C/c1ccccc1)C(C)(C)O` [compound 7, (+)-6-cinnamoyl-6,7-dihydro-7-myrceneol]: the EC50 was 70.6 ± 12.2 µM.

For `COc1cc(C[C@H](C)[C@H](C)Cc2ccc(OC)c(OC)c2)ccc1O` [compound 8, mono-methyl dihydroguaiaretic acid], the EC50 amounted to 54.6 ± 28.8 µM.

As to `COc1cc(C[C@H](C)[C@H](C)Cc2ccc3c(c2)OCO3)ccc1O` [compound 11, anwulignan], the EC50 was 31.5 ± 7.1 µM.

Consider `CC1(C)CCC[C@]1(C)C1=CC=C(C(=O)O)CC1` [compound 12, (−)-5,6-dihydrocuparenic acid], for which the concentration for a half-maximal effect (EC50) is 118 ± 29.9 µM.

These data come from article PMC3201904 (Phytochemistry, 2011).
